Reference: ChEMBL document CHEMBL1201862, “PubChem BioAssay data set” (2004)
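All cell lines were grown in 96-well plates and treated with compound for 48 hours. GI50 marks 50% less growth.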 Calls of active or inactive are those of the source. Cut-off read from the data, not from the text of the source: active = GI50 up to about 1.1 µM and inactive = higher.

Key:
Test in all cases: growth of human tumour cells (NCI), 48 h
SR = test system: SR
UACC-257 = test system: UACC-257
NCI-H23 = test system: NCI-H23
BT-549 = test system: BT-549
MOLT-4 = test system: MOLT-4
NCI/ADR-RES = test system: NCI/ADR-RES
SK-MEL-28 = test system: SK-MEL-28
SF-268 = test system: SF-268
CAKI-1 = test system: CAKI-1
SN12C = test system: SN12C
Malme-3M = test system: Malme-3M
HOP-92 = test system: HOP-92
RXF 393 = test system: RXF 393
HCT-15 = test system: HCT-15
SNB-19 = test system: SNB-19
LOX IMVI = test system: LOX IMVI
U-251 = test system: U-251
K562 = test system: K562
UO-31 = test system: UO-31
A498 = test system: A498

Structure (SMILES) | GI50 (SR) | GI50 (UACC-257) | GI50 (NCI-H23) | GI50 (BT-549) | GI50 (MOLT-4) | GI50 (NCI/ADR-RES) | GI50 (SK-MEL-28) | GI50 (SF-268) | GI50 (CAKI-1) | GI50 (SN12C) | GI50 (Malme-3M) | GI50 (HOP-92) | GI50 (RXF 393) | GI50 (HCT-15) [µM] | GI50 (SNB-19) | GI50 (LOX IMVI) | GI50 (U-251) | GI50 (K562) | GI50 (UO-31) | GI50 (A498)
O=C(O)c1nn(-c2ccccc2-c2nnc(O)nc2O)c(=O)[nH]c1=O | > 100 µM (inactive) | > 100 µM (inactive) | > 100 µM (inactive) | > 100 µM (inactive) | 4.73 µM (inactive) | > 100 µM (inactive) | > 100 µM (inactive) | > 100 µM (inactive) | > 100 µM (inactive) | > 100 µM (inactive) | > 100 µM (inactive) | > 100 µM (inactive) | > 100 µM (inactive) | > 100 | > 100 µM (inactive) | > 100 µM (inactive) | > 100 µM (inactive) | 2.47 µM (inactive) | > 100 µM (inactive) | > 100 µM (inactive)
Nc1nc(Sc2ccc([N+](=O)[O-])c3nonc23)c2nc[nH]c2n1 | 0.0822 µM (active) | 2.13 µM (inactive) | 2.25 µM (inactive) | 2.07 µM (inactive) | 0.301 µM (active) | 0.495 µM (active) | 10.5 µM (inactive) | 0.681 µM (active) | 0.36 µM (active) | 1.97 µM (inactive) | 1.02 µM (active) | 2.56 µM (inactive) | 1.36 µM (inactive) | 1.89 | 15.8 µM (inactive) | 0.232 µM (active) | 5.86 µM (inactive) | 0.369 µM (active) | 0.716 µM (active) | 13.7 µM (inactive)
O=C(O)C1=NN(c2ccc(S(=O)(=O)O)cc2)C2(C1)C(Cl)C(=O)N2c1nc2ccccc2s1 (stereo not given) | 7.82 µM (inactive) | 17.2 µM (inactive) | 14.4 µM (inactive) | 17.4 µM (inactive) | 15.3 µM (inactive) | 23.9 µM (inactive) | 20.2 µM (inactive) | 17.9 µM (inactive) | 15.4 µM (inactive) | 17.8 µM (inactive) | 20.5 µM (inactive) | 20.5 µM (inactive) | 16.1 µM (inactive) | 20.6 | 21.3 µM (inactive) | 2.99 µM (inactive) | 15.8 µM (inactive) | 22.1 µM (inactive) | 8.3 µM (inactive) | 19.1 µM (inactive)
Nc1ccn(C2OC(COP(=O)(O)OCC3OC(n4cc(F)c(=O)[nH]c4=O)CC3O)C(O)C2O)c(=O)n1 (stereo not given) | < 0.01 µM (active) | > 21.5 µM (inactive) | 0.314 µM (active) | > 37.6 µM (inactive) | 0.0575 µM (active) | 9.23 µM (inactive) | > 25.5 µM (inactive) | < 0.01 µM (active) | 0.508 µM (active) | 3.05 µM (inactive) | 3.07 µM (inactive) | 38 µM (inactive) | > 56.8 µM (inactive) | 5.75 | 0.585 µM (active) | 0.0353 µM (active) | 1.77 µM (inactive) | > 100 µM (inactive) | 0.339 µM (active) | 0.225 µM (active)
CO[C@@H]1C[C@H]2[C@@H]3CC[C@H]([C@@H](C)COC(C)=O)[C@@]3(C)CC[C@@H]2[C@@]2(C)CC[C@H]3C[C@]312 | 10 µM (inactive) | 11.6 µM (inactive) | 12.8 µM (inactive) | 14.2 µM (inactive) | 15.3 µM (inactive) | 14.1 µM (inactive) | 17.1 µM (inactive) | 17.9 µM (inactive) | 9.12 µM (inactive) | 16.5 µM (inactive) | 16 µM (inactive) | 19.9 µM (inactive) | 17.7 µM (inactive) | 13.3 | 16.9 µM (inactive) | 11.4 µM (inactive) | 13.1 µM (inactive) | 10.2 µM (inactive) | 18.5 µM (inactive) | 20 µM (inactive)
O=C(C[N+]1(c2ccccc2)CCOCC1)c1ccccc1 | 34.8 µM (inactive) | 72.8 µM (inactive) | > 100 µM (inactive) | > 100 µM (inactive) | 30.4 µM (inactive) | > 100 µM (inactive) | 0.0445 µM (active) | > 100 µM (inactive) | > 100 µM (inactive) | > 100 µM (inactive) | > 100 µM (inactive) | > 100 µM (inactive) | > 100 µM (inactive) | > 100 | > 100 µM (inactive) | > 100 µM (inactive) | > 100 µM (inactive) | 40.9 µM (inactive) | > 100 µM (inactive) | > 100 µM (inactive)
CC(=O)Nc1ccc2c(c1)nc1c3ccccc3ccn21 | > 100 µM (inactive) | > 100 µM (inactive) | > 100 µM (inactive) | > 100 µM (inactive) | > 100 µM (inactive) | > 100 µM (inactive) | > 100 µM (inactive) | > 100 µM (inactive) | 96.4 µM (inactive) | > 100 µM (inactive) | > 100 µM (inactive) | > 100 µM (inactive) | 99.1 µM (inactive) | > 100 | > 100 µM (inactive) | > 100 µM (inactive) | > 100 µM (inactive) | 56.1 µM (inactive) | 90.4 µM (inactive) | > 100 µM (inactive)
Cc1nnc(N)nc1/C=C\c1cccs1 | 16.6 µM (inactive) | 32.6 µM (inactive) | 17.6 µM (inactive) | 42.9 µM (inactive) | 32.3 µM (inactive) | 16.7 µM (inactive) | 28.8 µM (inactive) | 19.5 µM (inactive) | 34.2 µM (inactive) | > 10 µM (inactive) | 13.4 µM (inactive) | 18.4 µM (inactive) | 19.5 µM (inactive) | 10.2 | 33.6 µM (inactive) | 29.6 µM (inactive) | 29.9 µM (inactive) | 23.4 µM (inactive) | 10.1 µM (inactive) | 22 µM (inactive)
CN(C)c1nc(NC23CC4CC(CC(C4)C2)C3)nc(N(C)C)n1 | 14.5 µM (inactive) | 31.3 µM (inactive) | 9.33 µM (inactive) | 21.4 µM (inactive) | 10 µM (inactive) | 23.4 µM (inactive) | 22 µM (inactive) | > 42.1 µM (inactive) | 37.6 µM (inactive) | 27.2 µM (inactive) | 33.1 µM (inactive) | 10.6 µM (inactive) | 3.48 µM (inactive) | 5.15 | 14.9 µM (inactive) | 3.36 µM (inactive) | 9.1 µM (inactive) | 2.81 µM (inactive) | 31.4 µM (inactive) | > 54 µM (inactive)
CC(=O)CCCCn1c(=O)c2c(nc(Br)n2C)n(C)c1=O | > 100 µM (inactive) | > 100 µM (inactive) | > 100 µM (inactive) | > 100 µM (inactive) | > 100 µM (inactive) | > 100 µM (inactive) | > 100 µM (inactive) | > 100 µM (inactive) | 1.82 µM (inactive) | > 100 µM (inactive) | > 100 µM (inactive) | 11.7 µM (inactive) | > 100 µM (inactive) | > 100 | > 100 µM (inactive) | > 100 µM (inactive) | > 100 µM (inactive) | 62.1 µM (inactive) | 32.4 µM (inactive) | 95.9 µM (inactive)
